In EP3820512B1, “IMMUNOMODULATING COMPOSITIONS COMPRISING OLIGOSACCHARIDE DERIVATIVES” (priority 2018, dated 2020):
“Also recorded” adds a separate entry of the source.

Experiments:
[1] = tested on: P. aeruginosa (ATCC-10145 GFP) infected skin wounds; assay: Murine study of skin wound infection; format: in vivo, C57BL6 mice
Protocol: Five groups of C57BL/6 mice (8-10 weeks old, n = 4) were wounded on the dorsal surface. 25µl containing 10^6 CFU/mL P. aeruginosa in a PBS suspension were pipetted onto the wound and allowed to absorb for at least 3 min. […] Subsequently and for the next 13 days, infected wounds were treated each alternate day with colistin, or with test compounds.
Along with that less focal inflammation is observed in compound treated groups vs PA group.

[2] = biological target: T1, TLR1/2 (Homo sapiens, UniProt O60603); assay: TLR1/2 modulation: IL-6 ELISA in hPBMC with TLR1/2 ligand Pam3CSK4; format: cell-based
T1 construct: endogenous in cells; host or cells: hPBMC (human peripheral blood monocytes)
Excerpt: Compound 8 modulates the TLR1/2 activities in a concentration dependent manner.

[3] = biological target: T2, TLR9 (Homo sapiens, UniProt Q9NR96); assay: TLR9 antagonism: IFN-α ELISA in hPBMC with TLR9 ligand ODN2216; format: cell-based; conditions: in combination with ODN2216, hPBMC, 48h
T2 construct: endogenous in cells; host or cells: hPBMC (human peripheral blood monocytes)
T2 sequence (Q9NR96 26-1032): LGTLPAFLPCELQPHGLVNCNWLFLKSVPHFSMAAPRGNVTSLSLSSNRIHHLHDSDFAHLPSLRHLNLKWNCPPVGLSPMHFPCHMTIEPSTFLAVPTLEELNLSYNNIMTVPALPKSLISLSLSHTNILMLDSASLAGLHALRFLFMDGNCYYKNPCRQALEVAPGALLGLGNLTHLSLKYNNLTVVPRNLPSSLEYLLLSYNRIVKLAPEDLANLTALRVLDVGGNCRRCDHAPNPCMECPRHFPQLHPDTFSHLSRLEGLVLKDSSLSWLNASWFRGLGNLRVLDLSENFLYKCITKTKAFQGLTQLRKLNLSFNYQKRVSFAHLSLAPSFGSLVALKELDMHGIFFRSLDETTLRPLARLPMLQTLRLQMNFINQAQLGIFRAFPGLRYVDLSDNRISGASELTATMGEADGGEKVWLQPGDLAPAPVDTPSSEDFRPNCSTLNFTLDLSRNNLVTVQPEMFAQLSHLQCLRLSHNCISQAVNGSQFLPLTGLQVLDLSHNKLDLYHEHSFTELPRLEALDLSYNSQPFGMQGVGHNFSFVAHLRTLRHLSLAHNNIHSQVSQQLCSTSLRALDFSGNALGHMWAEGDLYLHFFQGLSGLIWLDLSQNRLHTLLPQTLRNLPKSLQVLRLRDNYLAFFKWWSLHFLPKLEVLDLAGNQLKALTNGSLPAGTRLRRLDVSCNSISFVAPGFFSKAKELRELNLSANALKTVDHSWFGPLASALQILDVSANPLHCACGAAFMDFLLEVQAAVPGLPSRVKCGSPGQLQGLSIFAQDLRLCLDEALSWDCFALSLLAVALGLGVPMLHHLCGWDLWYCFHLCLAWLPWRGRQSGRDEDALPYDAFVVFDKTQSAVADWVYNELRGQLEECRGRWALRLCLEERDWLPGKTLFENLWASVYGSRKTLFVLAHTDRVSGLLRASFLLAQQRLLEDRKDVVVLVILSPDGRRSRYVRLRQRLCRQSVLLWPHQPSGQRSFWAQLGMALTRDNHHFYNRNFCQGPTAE
Protocol: Compound 8 antagonizes the TLR9 activities and downregulates the production of IFN-α in combination with TLR9 ligand ODN2216 in hPBMC after 48h of treatment as detected by ELISA (FIG. 11).

[4] = tested on: HUVECs; assay: Cytotoxicity in HUVECs, MTT cell proliferation kit; format: cell-based, human; conditions: 100 µM, 24h
Protocol: Selected TLR2/4 antagonist compounds 2, 6, 7, 8, 14, 17 and 32 were evaluated for cytotoxicity in HUVECs at 100 µM concentration. The cells were treated with compounds and incubated for 24h. Cell viability was assessed using MTT cell proliferation kit (Promega). All the compounds were not toxic to HUVECs (FIG. 15).

T1 sequence (O60603 21-784): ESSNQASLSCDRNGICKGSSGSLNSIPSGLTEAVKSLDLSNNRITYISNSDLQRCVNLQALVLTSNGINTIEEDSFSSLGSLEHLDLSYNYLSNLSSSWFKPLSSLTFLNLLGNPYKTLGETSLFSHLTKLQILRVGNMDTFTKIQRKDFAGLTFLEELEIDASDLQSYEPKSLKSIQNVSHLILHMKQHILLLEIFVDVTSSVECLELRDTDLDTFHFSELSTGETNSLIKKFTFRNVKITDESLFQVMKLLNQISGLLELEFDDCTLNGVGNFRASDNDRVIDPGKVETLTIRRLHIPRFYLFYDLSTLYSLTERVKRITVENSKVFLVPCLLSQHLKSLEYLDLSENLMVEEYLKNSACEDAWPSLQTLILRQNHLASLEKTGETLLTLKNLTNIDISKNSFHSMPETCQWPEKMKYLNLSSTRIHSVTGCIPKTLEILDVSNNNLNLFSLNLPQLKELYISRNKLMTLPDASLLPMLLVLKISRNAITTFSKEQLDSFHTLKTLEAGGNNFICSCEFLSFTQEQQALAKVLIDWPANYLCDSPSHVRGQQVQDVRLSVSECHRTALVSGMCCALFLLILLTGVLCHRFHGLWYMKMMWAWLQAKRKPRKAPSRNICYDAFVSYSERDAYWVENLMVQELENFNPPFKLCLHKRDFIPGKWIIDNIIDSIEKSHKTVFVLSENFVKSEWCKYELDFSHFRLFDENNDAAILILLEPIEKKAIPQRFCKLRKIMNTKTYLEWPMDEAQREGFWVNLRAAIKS

## CC(=O)N[C@H]1[C@H](Oc2ccc([N+](=O)[O-])cc2)O[C@H](CO)[C@@H](O)[C@@H]1O [Compound 8, p-Nitrophenyl 2-acetamido-2-deoxy-β-D-glucopyranoside]
[1]; 13 days post infection, vs untreated control
  CFU in tissues / bacterial counts: decreased; also recorded: statistically significant reduction
[1]; H&E histology, day 13 post-injury, vs controls, p=0.050 (Colistin, compound 1), p=0.073 (compound 8)
  Re-epithelialization and granulation tissue: borderline non-significant
[1]; topical, each alternate day, day 13, compounds 100µM / 100µg /ml, Colistin 4µg/ml
  closure of P. aeruginosa infected skin wounds: effectively closed; also recorded: complete closure
[2]; 0.1 µM to <1 µM, in combination with Pam3CSK4, hPBMC, 24h, ELISA
  IL-6 protein level: downregulate
[2]; 1.0, 10 and 100 µM, in combination with CL075, hPBMC
  production of IL-6: significantly stimulated
[3]
  production of IFN-α: downregulates
[4]
  cytotoxicity in HUVECs (cell viability): not toxic
